Results published in PubChem BioAssay (NCI).
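GI50 = concentration required for 50% inhibition of growth. TGI denotes the concentration required for complete inhibition of growth.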

Legend:
Assay in all cases: NCI anticancer screen, dose series, 384-well format
[1] = tested on: 786-0 renal
[2] = tested on: A498 renal
[3] = tested on: A549 NSCLC
[4] = tested on: ACHN renal
[5] = tested on: BT-549 breast
[6] = tested on: CAKI-1 renal
[7] = tested on: CCRF-CEM leukemia
[8] = tested on: COLO 205 colon
[9] = tested on: DU-145 prostate
[10] = tested on: EKVX NSCLC
[11] = tested on: HCC-2998 colon
[12] = tested on: HCT-116 colon
[13] = tested on: HCT-15 colon
[14] = tested on: HL-60(TB) leukemia
[15] = tested on: HOP-62 NSCLC
[16] = tested on: HOP-92 NSCLC
[17] = tested on: HS 578T breast
[18] = tested on: HT29 colon
[19] = tested on: IGROV1 ovarian
[20] = tested on: K-562 leukemia
[21] = tested on: KM12 colon
[22] = tested on: LOX IMVI melanoma
[23] = tested on: M14 melanoma
[24] = tested on: MALME-3M melanoma
[25] = tested on: MCF7 breast
[26] = tested on: MDA-MB-231 breast
[27] = tested on: MDA-MB-435 melanoma
[28] = tested on: MDA-MB-468 breast
[29] = tested on: MOLT-4 leukemia
[30] = tested on: NCI-H226 lung
[31] = tested on: NCI-H23 lung
[32] = tested on: NCI-H322M lung
[33] = tested on: NCI-H460 NSCLC
[34] = tested on: NCI-H522 lung
[35] = tested on: NCI/ADR-RES ovarian
[36] = tested on: OVCAR-3 ovarian
[37] = tested on: OVCAR-4 ovarian
[38] = tested on: OVCAR-5 ovarian
[39] = tested on: OVCAR-8 ovarian
[40] = tested on: PC-3 prostate
[41] = tested on: RPMI-8226 leukemia
[42] = tested on: RXF 393 renal
[43] = tested on: SF-268 CNS
[44] = tested on: SF-295 CNS
[45] = tested on: SF-539 CNS
[46] = tested on: SK-MEL-2 melanoma
[47] = tested on: SK-MEL-28 melanoma
[48] = tested on: SK-MEL-5 melanoma
[49] = tested on: SK-OV-3 ovarian
[50] = tested on: SN12C renal
[51] = tested on: SNB-19 CNS
[52] = tested on: SNB-75 CNS
[53] = tested on: SW-620 colon
[54] = tested on: T-47D breast
[55] = tested on: TK-10 renal
[56] = tested on: U251 glioblastoma
[57] = tested on: UACC-257 melanoma
[58] = tested on: UACC-62 melanoma
[59] = tested on: UO-31 renal

## Cc1ccccc1C(C(=O)NC1CCCCC1)N(C(=O)CNc1ncccc1F)c1cccc(F)c1 (stereo not drawn)
[1]
  GI50: > 100 µM
  TGI: > 100 µM
[2]
  GI50: > 100 µM
  TGI: > 100 µM
[3]
  GI50: > 100 µM
  TGI: > 100 µM
[4]
  GI50: > 100 µM
  TGI: > 100 µM
[5]
  GI50: > 100 µM
  TGI: > 100 µM
[6]
  GI50: > 100 µM
  TGI: > 100 µM
[7]
  GI50: > 100 µM
  TGI: > 100 µM
[8]
  GI50: > 100 µM
  TGI: > 100 µM
[9]
  GI50: > 100 µM
  TGI: > 100 µM
[10]
  GI50: > 100 µM
  TGI: > 100 µM
[11]
  GI50: > 100 µM
  TGI: > 100 µM
[12]
  GI50: > 100 µM
  TGI: > 100 µM
[13]
  GI50: > 100 µM
  TGI: > 100 µM
[14]
  GI50: > 100 µM
  TGI: > 100 µM
[15]
  GI50: > 100 µM
  TGI: > 100 µM
[16]
  GI50: > 100 µM
  TGI: > 100 µM
[17]
  GI50: > 100 µM
  TGI: > 100 µM
[18]
  GI50: > 100 µM
  TGI: > 100 µM
[19]
  GI50: > 100 µM
  TGI: > 100 µM
[20]
  GI50: > 100 µM
  TGI: > 100 µM
[21]
  GI50: > 100 µM
  TGI: > 100 µM
[22]
  GI50: > 100 µM
  TGI: > 100 µM
[23]
  GI50: > 100 µM
  TGI: > 100 µM
[24]
  GI50: > 100 µM
  TGI: > 100 µM
[25]
  GI50: > 100 µM
  TGI: > 100 µM
[26]
  GI50: > 100 µM
  TGI: > 100 µM
[27]
  GI50: > 100 µM
  TGI: > 100 µM
[28]
  GI50: > 100 µM
  TGI: > 100 µM
[29]
  GI50: > 100 µM
  TGI: > 100 µM
[30]
  GI50: > 100 µM
  TGI: > 100 µM
[31]
  GI50: > 100 µM
  TGI: > 100 µM
[32]
  GI50: > 100 µM
  TGI: > 100 µM
[33]
  GI50: > 100 µM
  TGI: > 100 µM
[34]
  GI50: > 100 µM
  TGI: > 100 µM
[35]
  GI50: > 100 µM
  TGI: > 100 µM
[36]
  GI50: > 100 µM
  TGI: > 100 µM
[37]
  GI50: > 100 µM
  TGI: > 100 µM
[38]
  GI50: > 100 µM
  TGI: > 100 µM
[39]
  GI50: > 100 µM
  TGI: > 100 µM
[40]
  GI50: > 100 µM
  TGI: > 100 µM
[41]
  GI50: > 100 µM
  TGI: > 100 µM
[42]
  GI50: > 100 µM
  TGI: > 100 µM
[43]
  GI50: > 100 µM
  TGI: > 100 µM
[44]
  GI50: > 100 µM
  TGI: > 100 µM
[45]
  GI50: > 100 µM
  TGI: > 100 µM
[46]
  GI50: > 100 µM
  TGI: > 100 µM
[47]
  GI50: > 100 µM
  TGI: > 100 µM
[48]
  GI50: > 100 µM
  TGI: > 100 µM
[49]
  GI50: > 100 µM
  TGI: > 100 µM
[50]
  GI50: > 100 µM
  TGI: > 100 µM
[51]
  GI50: > 100 µM
  TGI: > 100 µM
[52]
  GI50: > 100 µM
  TGI: > 100 µM
[53]
  GI50: > 100 µM
  TGI: > 100 µM
[54]
  GI50: > 100 µM
  TGI: > 100 µM
[55]
  GI50: > 100 µM
  TGI: > 100 µM
[56]
  GI50: > 100 µM
  TGI: > 100 µM
[57]
  GI50: > 100 µM
  TGI: > 100 µM
[58]
  GI50: > 100 µM
  TGI: > 100 µM
[59]
  GI50: > 100 µM
  TGI: > 100 µM
